What was measured:
cleaved Caspase-3 = assay: Western blot of cleaved Caspase-3 in HeLa cells; assay type: cell-based; conditions: RB 30 μmol/L treated HeLa; light; 250 mT vs no magnetic field
Procedure: (§1) HeLa cells (2×10^4/well) are seeded in 6-well plates and cultured for 24 hours, added with RB solution (final concentration 30 μmol/L) or PBS buffer (final concentration 0.01 mol/L), and after treating 24 hours, cells are washed 3 times with PBS buffer.
(§2) The cells are placed under a magnetic field at 0, 250 or 800 mT, simultaneously with light (561 nm, 5 mW·cm^−2) or in the dark. After 24 hours treatment, cells are washed with PBS buffer and collect by centrifugation. Protein is extracted from cells using RIPA lysis buffer (medium lysis strength). Target protein is detected with primary antibody, to identify cleaved Caspase-3 protease, Bax (BCL2-Associated X protein) and Bcl-2 (B lymphocytomatose-2 gene), respectively, with β-Actin antibody as the reference. Images are acquired by Bio-Rad ChemiDoc touch imaging system, and results are shown in FIG. 14, in which, group A is PBS buffer treated HeLa cells (light, no magnetic field); group B is RB treated HeLa cells (light, no magnetic field); group C is RB-treated Hela cells (light, 250 mT magnetic field); group D is RB-treated Hela cells (light, 800 mT magnetic field).
(§3) The change rate of protein expression is (AB−A0)/A0×100%, where AB and A0 are protein expression with and without magnetic field, respectively (obtained by ImageJ software analyzing the bands in FIG. 14).

Bax/Bcl-2 = assay: Western blot of Bax/Bcl-2 in HeLa cells; assay type: cell-based; conditions: RB 30 μmol/L treated HeLa; light; 250 mT vs no magnetic field
Procedure: as §1, §2, §3

[1] = Reaction rate of KI with 1O2 (I3− absorbance at 350 nm) under light and magnetic field; assay type: physicochemical
Procedure: (1) The photosensitizers Rose Bengal (RB) and potassium iodide KI are dissolved in water, with the concentrations of photosensitizer and KI is 10 μmol/L and 10 mmol/L, respectively in the resulting solution. […] The above UV-vis absorption spectra tests are performed in the strength range of the magnetic field from 0 to 850 mT respectively.
(2) The photosensitizer chlorin e6 (Ce6, Chlorin e6) and potassium iodide KI are dissolved in water, with the concentrations of the photosensitizer and KI of 10 μmol/L and 10 mmol/L in the resulting solutions. In a magnetic field with certain strength, the solutions are exposed to a 635 nm LED lamp (light emitting diode) at a power of 5 mW·cm^−2, and tested for absorption spectra every 15 seconds over 5 min, and the absorbance at 350 nm is recorded to obtain absorbance versus time curves. The above UV-vis absorption spectra are obtained at a magnetic field strength range from 0 to 850 mT, respectively.
External magnetic field is supplied by East Transformer (Beijing) EM4 electromagnets. Ultraviolet-visible absorption spectra are tested with Agilent 8453 UV/Visible spectrometer equipped with Agilent 89090A thermostat (±0.1° C.).
Under irradiation conditions, photosensitizer is excited to produce singlet oxygen ^1O2, and KI reacts with ^1O2 to give I2 and target detector, iodine triion I3^−, characterized by absorption bands centered at 300 and 350 nm in UV-vis absorption spectrum. The reaction rate is R, which is proportional to the slope of absorbance-time curve of iodine triion I3^− at 350 nm.
In the present invention, the magnetic field effects (MFEs) is quantified by mfeR, the change rate of the reaction rate R, mfeR=(RB−R0)/R0×100%, where R0 is the reaction rate at a magnetic field strength of 0 mT and RB is the reaction rate at a magnetic field strength of B mT.
(3) The RB/KI solution in experiment (1) of this Example is placed in a magnetic field modulated with square wave (90 s for the first period, a magnetic field strength of 0 mT for the first 45 s and 100 mT for the last 45 s; 60 s for the last three cycles, a magnetic field strength of 0 mT for the first 30 s and 100 mT for the last 30 s). Under 561 nm LED (Light Emitting Diode) irradiation with 5 mW·cm^−2, absorption spectra are tested every 5 seconds over 5 min. and the absorbance at 350 nm is recorded, to obtain an absorbance-time curve, as shown in FIG. 6.

HeLa xenograft tumor = HeLa xenograft tumor growth in BALB/c nude mice with photodynamic treatment and magnetic field; assay type: in vivo; conditions: RB 1.0 mg/kg intratumoral, 14 days
Procedure: Twenty-four five-weeks old female BALB/c nude mice are selected, 1×10^6 HeLa cells (in 200 μL 0.01 mol/L PBS buffer) are inoculated subcutaneously into the dorsal right flank of each mouse, and a xenograft tumor model is established (Five-weeks old female BALB/c nude mice are obtained from Beijing Agronomy and housed under standard environmental conditions. All animal procedures are approved by Beijing Agronomy Animal Care and Use Committee). After tumors growing up, 25 μL RB (1.0 mg/kg) or an equal volume of PBS buffer at a concentration of 0.01 mol/L are injected intratumorally.
The treatment conditions for dividing the mice into 8 groups (3 mice each) are as follows: • (1) Injection of PBS buffer-no light-no magnetic field (PBS-dark-0mT); • (2) Injection of PBS buffer-light-no magnetic field (PBS-light-0mT); • (3) Injection of PBS buffer-light-250mT magnetic field (PBS-light-250mT); • (4) Injection of PBS Buffer-Light-800mT magnetic field (PBS-light-800mT); • (5) RB-light-no magnetic field (RB-light-0mT) injection (RB-light-0mT); • (6) Injection of RB-light-100mT magnetic field (RB-light-100mT); • (7) Injection of RB-light-250mT magnetic field (RB-light-250mT); • (8) Inject RB-light-800mT magnetic field (RB-light-800mT).
All groups except group (1) receive light 5 min after injection at wavelength of 400-700 nm and power of 100 mW·cm^−2 and light time of 10 min. The tumor area of mice in groups (3), (4) and (6)-(8) are exposed to static magnetic field by using electromagnet during light exposure.
Test (one): Tumor size is monitored with digital calipers every other day for the following 14 days (peripheral measurements of tumors are performed […]), and tumors are calculated by Volume=Length×Width×[…]. Results for groups (2), (4), (5), (7), (8) are shown in FIG. 16, in which, ** is statistical probability p<0.01; *** is p<0.005, p<0.05 is considered significant. Each group is sacrificed 3 mice on day 14 post-injection, tumor tissues are collected for photographing and weighing, and tumor tissues are removed from groups (2), (3), (4), (5), (7), (8) as shown in FIG. 17; the rate of mass change of the tumor tissue in groups (5), (7), (8) is shown in FIG. 18, and the rate of mass change is (ωB−ω0)/ω0×100%, where ωB is the tumor mass under magnetic field conditions and ω0 is the tumor mass in group (5).

O=C1OC2(c3cc(I)c(O)c(I)c3Oc3c2cc(I)c(O)c3I)c2c(Cl)c(Cl)c(Cl)c(Cl)c21 [RB, Rose Bengal]
change rate of cleaved Caspase-3 expression (%) (cleaved Caspase-3): 34.1 ± 1.9% | change rate of Bax/Bcl-2 expression (%) (Bax/Bcl-2): 10.6 ± 0.5% | mfeR (change rate of reaction rate R of KI with 1O2) ([1]; RB 10 μmol/L, KI 10 mmol/L, 561 nm 5 mW·cm−2, maximum at MF=80-135 mT): 46% | mfeR (change rate of reaction rate R of KI with 1O2) ([1]; RB 10 μmol/L, KI 10 mmol/L, 561 nm 5 mW·cm−2, minimum at MF=14 mT): 33% | increase of R value on average compared to 0 mT ([1]; RB/KI, square-wave modulated field, 100 mT vs 0 mT, FIG. 7): about 45% | mfeR (change rate of reaction rate R of KI with 1O2) ([1]; RB, MF from 34 to 355 mT, FIG. 5): > 0% | mfeR (change rate of reaction rate R of KI with 1O2) ([1]; RB, MF from 50 to 220 mT, FIG. 5): > 20% | tumor growth (volume and mass) (HeLa xenograft tumor; group (5) RB-light-0mT, 400-700 nm 100 mW·cm−2 10 min): inhibition of tumor growth | magnetic field effect on tumor growth (HeLa xenograft tumor; group (6) RB-light-100mT): no significant effect on tumor growth | tumor growth (volume and mass) (HeLa xenograft tumor; group (7) RB-light-250mT): further inhibition of tumor growth | magnetic field effect on tumor growth (HeLa xenograft tumor; group (8) RB-light-800mT): no significant effect on tumor growth

Reference: patent US20250041624A1, “METHOD FOR ENHANCING ACTIVITY OF PHOTOSENSITIZER BY MAGNETIC FIELD” (PEKING UNIVERSITY, priority 2021, published 2025)
